Data: the NIST ThermoML archive (doi:10.1021/je200721d)
Numbers after ± are expanded uncertainties.

Assay: xn = mol fraction of the nth substance listed
Conditions: Liquid, Vibrating tube method

CCCCCCCC [octane] + CCCCCC
mass density (333.01 K, 7000 kPa, x2 = 0.9308): 636.74 ± 0.33 kg/m3
mass density (333.01 K, 8000 kPa, x2 = 0.9308): 638.01 ± 0.34 kg/m3
mass density (333.01 K, 9000 kPa, x2 = 0.9308): 639.26 ± 0.35 kg/m3
mass density (333.01 K, 10000 kPa, x2 = 0.9308): 640.48 ± 0.36 kg/m3
mass density (333.01 K, 11000 kPa, x2 = 0.9308): 641.7 ± 0.37 kg/m3
mass density (333.01 K, 12000 kPa, x2 = 0.9308): 642.89 ± 0.38 kg/m3
mass density (333.01 K, 13000 kPa, x2 = 0.9308): 644.06 ± 0.39 kg/m3
mass density (333.01 K, 14000 kPa, x2 = 0.9308): 645.22 ± 0.4 kg/m3
mass density (333.01 K, 15000 kPa, x2 = 0.9308): 646.35 ± 0.41 kg/m3
mass density (333.01 K, 16000 kPa, x2 = 0.9308): 647.46 ± 0.42 kg/m3
mass density (333.01 K, 17000 kPa, x2 = 0.9308): 648.54 ± 0.43 kg/m3
mass density (333.01 K, 18000 kPa, x2 = 0.9308): 649.61 ± 0.44 kg/m3
mass density (333.01 K, 19000 kPa, x2 = 0.9308): 650.63 ± 0.45 kg/m3
mass density (333.01 K, 20000 kPa, x2 = 0.9308): 651.64 ± 0.46 kg/m3
mass density (333.01 K, 21000 kPa, x2 = 0.9308): 652.62 ± 0.47 kg/m3
mass density (333.01 K, 22000 kPa, x2 = 0.9308): 653.55 ± 0.48 kg/m3
mass density (333.01 K, 23000 kPa, x2 = 0.9308): 654.5 ± 0.49 kg/m3
mass density (333.01 K, 24000 kPa, x2 = 0.9308): 655.39 ± 0.51 kg/m3
mass density (333.01 K, 25000 kPa, x2 = 0.9308): 656.28 ± 0.52 kg/m3
mass density (333.02 K, 1000 kPa, x2 = 0.1654): 665.79 ± 0.26 kg/m3
mass density (333.02 K, 1000 kPa, x2 = 0.7995): 637.16 ± 0.28 kg/m3
mass density (333.02 K, 2000 kPa, x2 = 0.1654): 666.85 ± 0.27 kg/m3
mass density (333.02 K, 2000 kPa, x2 = 0.7995): 638.39 ± 0.28 kg/m3
mass density (333.02 K, 3000 kPa, x2 = 0.1654): 667.91 ± 0.28 kg/m3
mass density (333.02 K, 3000 kPa, x2 = 0.7995): 639.63 ± 0.29 kg/m3
mass density (333.02 K, 4000 kPa, x2 = 0.1654): 668.97 ± 0.29 kg/m3
mass density (333.02 K, 4000 kPa, x2 = 0.7995): 640.91 ± 0.3 kg/m3
mass density (333.02 K, 5000 kPa, x2 = 0.1654): 670.04 ± 0.29 kg/m3
mass density (333.02 K, 5000 kPa, x2 = 0.7995): 642.14 ± 0.31 kg/m3
mass density (333.02 K, 6000 kPa, x2 = 0.1654): 671.11 ± 0.3 kg/m3
mass density (333.02 K, 6000 kPa, x2 = 0.7995): 643.37 ± 0.32 kg/m3
mass density (333.02 K, 7000 kPa, x2 = 0.1654): 672.17 ± 0.31 kg/m3
mass density (333.02 K, 7000 kPa, x2 = 0.7995): 644.6 ± 0.33 kg/m3
mass density (333.02 K, 8000 kPa, x2 = 0.1654): 673.21 ± 0.32 kg/m3
mass density (333.02 K, 8000 kPa, x2 = 0.7995): 645.81 ± 0.34 kg/m3
mass density (333.02 K, 9000 kPa, x2 = 0.1654): 674.28 ± 0.33 kg/m3
mass density (333.02 K, 9000 kPa, x2 = 0.7995): 647.01 ± 0.35 kg/m3
mass density (333.02 K, 10000 kPa, x2 = 0.1654): 675.32 ± 0.34 kg/m3
mass density (333.02 K, 10000 kPa, x2 = 0.7995): 648.19 ± 0.36 kg/m3
mass density (333.02 K, 11000 kPa, x2 = 0.1654): 676.36 ± 0.34 kg/m3
mass density (333.02 K, 11000 kPa, x2 = 0.7995): 649.36 ± 0.37 kg/m3
mass density (333.02 K, 12000 kPa, x2 = 0.1654): 677.38 ± 0.35 kg/m3
mass density (333.02 K, 12000 kPa, x2 = 0.7995): 650.5 ± 0.38 kg/m3
mass density (333.02 K, 13000 kPa, x2 = 0.1654): 678.38 ± 0.36 kg/m3
mass density (333.02 K, 13000 kPa, x2 = 0.7995): 651.63 ± 0.39 kg/m3
mass density (333.02 K, 14000 kPa, x2 = 0.1654): 679.38 ± 0.37 kg/m3
mass density (333.02 K, 14000 kPa, x2 = 0.7995): 652.74 ± 0.4 kg/m3
mass density (333.02 K, 15000 kPa, x2 = 0.1654): 680.34 ± 0.38 kg/m3
mass density (333.02 K, 15000 kPa, x2 = 0.7995): 653.84 ± 0.4 kg/m3
mass density (333.02 K, 16000 kPa, x2 = 0.1654): 681.29 ± 0.39 kg/m3
mass density (333.02 K, 16000 kPa, x2 = 0.7995): 654.91 ± 0.41 kg/m3
mass density (333.02 K, 17000 kPa, x2 = 0.1654): 682.26 ± 0.4 kg/m3
mass density (333.02 K, 17000 kPa, x2 = 0.7995): 655.95 ± 0.42 kg/m3
mass density (333.02 K, 18000 kPa, x2 = 0.1654): 683.15 ± 0.41 kg/m3
mass density (333.02 K, 18000 kPa, x2 = 0.7995): 656.97 ± 0.43 kg/m3
mass density (333.02 K, 19000 kPa, x2 = 0.1654): 684.04 ± 0.41 kg/m3
mass density (333.02 K, 19000 kPa, x2 = 0.7995): 657.98 ± 0.44 kg/m3
mass density (333.02 K, 20000 kPa, x2 = 0.1654): 684.93 ± 0.42 kg/m3
mass density (333.02 K, 20000 kPa, x2 = 0.7995): 658.95 ± 0.45 kg/m3
mass density (333.02 K, 21000 kPa, x2 = 0.1654): 685.79 ± 0.43 kg/m3
mass density (333.02 K, 21000 kPa, x2 = 0.7995): 659.91 ± 0.46 kg/m3
mass density (333.02 K, 22000 kPa, x2 = 0.1654): 686.62 ± 0.44 kg/m3
mass density (333.02 K, 22000 kPa, x2 = 0.7995): 660.83 ± 0.47 kg/m3
mass density (333.02 K, 23000 kPa, x2 = 0.1654): 687.45 ± 0.45 kg/m3
mass density (333.02 K, 23000 kPa, x2 = 0.7995): 661.72 ± 0.48 kg/m3
mass density (333.02 K, 24000 kPa, x2 = 0.1654): 688.25 ± 0.46 kg/m3
mass density (333.02 K, 24000 kPa, x2 = 0.7995): 662.6 ± 0.49 kg/m3
mass density (333.02 K, 25000 kPa, x2 = 0.1654): 689.01 ± 0.47 kg/m3
mass density (333.02 K, 25000 kPa, x2 = 0.7995): 663.44 ± 0.51 kg/m3
mass density (333.04 K, 1000 kPa, x2 = 0.2199): 663.81 ± 0.26 kg/m3
mass density (333.04 K, 2000 kPa, x2 = 0.2199): 664.87 ± 0.27 kg/m3
mass density (333.04 K, 3000 kPa, x2 = 0.2199): 665.96 ± 0.28 kg/m3
mass density (333.04 K, 4000 kPa, x2 = 0.2199): 667.04 ± 0.29 kg/m3
mass density (333.04 K, 5000 kPa, x2 = 0.2199): 668.13 ± 0.29 kg/m3
mass density (333.04 K, 6000 kPa, x2 = 0.2199): 669.19 ± 0.3 kg/m3
mass density (333.04 K, 7000 kPa, x2 = 0.2199): 670.26 ± 0.31 kg/m3
mass density (333.04 K, 8000 kPa, x2 = 0.2199): 671.36 ± 0.32 kg/m3
mass density (333.04 K, 9000 kPa, x2 = 0.2199): 672.39 ± 0.33 kg/m3
mass density (333.04 K, 10000 kPa, x2 = 0.2199): 673.44 ± 0.34 kg/m3
mass density (333.04 K, 11000 kPa, x2 = 0.2199): 674.49 ± 0.35 kg/m3
mass density (333.04 K, 12000 kPa, x2 = 0.2199): 675.5 ± 0.35 kg/m3
mass density (333.04 K, 13000 kPa, x2 = 0.2199): 676.53 ± 0.36 kg/m3
mass density (333.04 K, 14000 kPa, x2 = 0.2199): 677.53 ± 0.37 kg/m3
mass density (333.04 K, 15000 kPa, x2 = 0.2199): 678.51 ± 0.38 kg/m3
mass density (333.04 K, 16000 kPa, x2 = 0.2199): 679.46 ± 0.39 kg/m3
mass density (333.04 K, 17000 kPa, x2 = 0.2199): 680.4 ± 0.4 kg/m3
mass density (333.04 K, 18000 kPa, x2 = 0.2199): 681.32 ± 0.41 kg/m3
mass density (333.04 K, 19000 kPa, x2 = 0.2199): 682.23 ± 0.42 kg/m3
mass density (333.04 K, 20000 kPa, x2 = 0.2199): 683.09 ± 0.43 kg/m3
mass density (333.04 K, 21000 kPa, x2 = 0.2199): 683.96 ± 0.43 kg/m3
mass density (333.04 K, 22000 kPa, x2 = 0.2199): 684.8 ± 0.44 kg/m3
mass density (333.04 K, 23000 kPa, x2 = 0.2199): 685.61 ± 0.45 kg/m3
mass density (333.04 K, 24000 kPa, x2 = 0.2199): 686.43 ± 0.46 kg/m3
mass density (333.04 K, 25000 kPa, x2 = 0.2199): 687.22 ± 0.47 kg/m3
